Measurements as given in patent US7754720B2, “Pyridazine compound and use thereof” (priority 2006, dated 2010).
Values after ≈ are worked out from the molar mass of the structure shown. Like-named read-outs stand apart in the source and are kept apart here.

Columns and labels:
[1] = system: HCV 2a subgenomic replicon; test: HCV genotype 2a subgenomic replicon in Huh-7 cells, NS3 protease activity by time-resolved fluorescence; type: cell-based, hepatitis C virus; conditions: compared with genotypes 1a and 1b
Method: (§1) The antiviral activity of compound (1) against HCV genotype 2a was tested in cells chronically infected with the genotype 2a virus as well as in cells replicating a subgenomic 2a replicon. Huh-7 cells containing chronically replicating HCV genotype 2a (J6/JFH-Rluc) virus or subgenomic replicons were cultured with compound (1) or 2′CMeA for 3 days in the absence of human serum albumin. After cultivation, the amount of luciferase in 2a-virus containing cells and HCV NS3 protease activity in the 2a replicon-containing cells was determined using Promega's luciferase assay and a novel time-resolved fluorescence assay, respectively.

[2] = Cytotoxicity, CellTiter-Glo Luminescence Cell Viability assay, Huh-7 lucneo; conditions: human, Huh-7 lucneo cells (HCV replicon-containing)
Method: (§2) Compound (1) was evaluated for its cytotoxicity in a variety of cell types including HCV replicon-containing cell lines (Huh-7, SL3 and MH4) and non-replicon-containing cell lines (HepG2, MT4), using a CellTiter-Glo Luminescence Cell Viability assay (Promega).

[3] = pKa; type: physicochemical; conditions: product of example 1b
[4] = in vivo
Text: (§3) A randomized, double-blind, placebo controlled trial was designed to evaluate the safety/tolerability, phamacokinetics and antiviral activity of single (in Part A) and multiple (in Part B) doses of Compound (1) (oleic acid solution, above) in subjects chronically infected with HCV genotype 1 (GT-1) without decompensated cirrhosis.
(§4) In completed Part A, five successive cohorts of 6 subjects were randomized (5:1) to receive single ascending doses of Compound 1 (40, 120, 240, 240-with food, or 480 mg) or placebo. In ongoing Part B, four successive cohorts of 12 subjects are randomized (10:2) to receive multiple ascending doses of Compound 1 (40 mg BID, 120 mg BID, 240 mg QD, 240 mg BID) or placebo, over 8 days.

[5] = system: HCV genotype 1a (H77/neo) replicon; test: HCV genotype 1a (H77/neo) replicon, quantitative real-time PCR assay; type: cell-based; conditions: Hepatitis C virus, 72 h, 3 days
Method: (§5) HCV genotype 1b (Con-1/lucneo) and 1a (H77/neo) replicon cells were incubated with serial dilutions of compound (1) 2′C-methyl adenosine (2′CMeA) or IFNα for 3 days in the absence or presence of 40 mg/mL human serum albumin (HSA).

[6] = system: HCV genotype 2a (J6/JFH-Rluc) virus; test: Huh-7 cells chronically infected with HCV genotype 2a reporter virus, luciferase assay; type: cell-based; conditions: Hepatitis C virus, Huh-7, 72 h, read-out: EC50, HCV-2a chronically infected cell culture model
Method: as §1

[7] = Phase-1 first-in-human trial, pharmacokinetics; conditions: in vivo
Text: as §3, §4

[8] = in vitro; conditions: human
Method: as §2

[9] = system: HCV replicon cells; test: In vitro combination study with IFN-α in replicon cells (MacSynergy); type: cell-based, hepatitis C virus; conditions: MacSynergy analysis
Method: Pegylated interteron-α (PEG-IFN-α), in combination with ribavirin, represents the current standard of care for HCV-infected patients. In vitro combination studies of compound (1) and IFN-α were performed in replicon cells. Data was analyzed using the MacSynergy template developed by Prichard and Shipman.

[10] = physchem; type: physicochemical; conditions: pH 6.4, fassif
[11] = Intrinsic and pH solubility profile; type: physicochemical
[12] = Cytotoxicity, CellTiter-Glo Luminescence Cell Viability assay, MH4; conditions: mouse, MH4 cells (HCV replicon-containing)
Method: as §2

[13] = log P; type: physicochemical; conditions: product of example 1b
[14] = system: HCV replicon; test: Anti-HCV replicon activity compared with prior art compound of formula (4); type: cell-based, hepatitis C virus
Text: The anti-HCV replicon activity of compound (1) was compared to that of a prior art (WO 05/063744) compound, the compound of formula (4)

[15] = system: HCV genotype 1b (Con-1/lucneo) replicon; test: microbe, parasite or virus in culture; type: cell-based; conditions: Hepatitis C virus
Method: as §5

[16] = in vitro; conditions: human; remark: listed apart in the source
Method: as §2

[17] = Cytotoxicity, CellTiter-Glo Luminescence Cell Viability assay, SL3; conditions: human, SL3 cells (HCV replicon-containing)
Method: as §2

SMILES: Fc1ccccc1-c1nc2ccn(Cc3ccc(-c4ccc(C(F)(F)F)cc4C(F)(F)F)nn3)cc-2n1 [Compound (1), 5-({6-[2,4-bis(trifluoromethyl)phenyl]pyridazin-3-yl}methyl)-2-(2-fluorophenyl)-5H-imidazo[4,5-c]pyridine]
- activity against genotype 2a [1]: substantially less active
- CC50 [2]: > 50000 nM
- pKa [3]: 5.8
- Grade 3 or 4 treatment emergent laboratory abnormalities ([4]; human): no Grade 3 or 4 treatment emergent laboratory abnormalities
- most common adverse event [4]: headache
- serious or treatment-limiting adverse events [4]: no serious or treatment-limiting adverse events
- severity of adverse events [4]: All AEs were mild in severity, with the exception of one moderate headache
- tolerability of single doses [4]: well tolerated
- EC50 [5]: 3.6 nM
- EC50 [6]: 2900 nM
- half-life [7]: 10 to 15 h
- increase of systemic exposure with a high fat meal [7]: approximately 2 fold
- CC50 [8]: > 50000 nM
- interaction with IFN-α in combination [9]: additive interaction
- solubility [10]: 19.1 µg/mL (≈ 36.9 µM)
- pH solubility profile at pH 7.3 ([11]; geometric mean (3 lots), pH 7.3): 0.7 micrograms/ml
- solubility ([11]; product of example 1b): 0.7 µg/mL (≈ 1.35 µM)
- CC50 [12]: > 50000 nM
- logP [13]: 2.8
- potency relative to the compound of formula (4) [14]: about 330 times
- EC50 ([15]; 72 h, read-out: EC50 HCV 1b-lucneo 40 mg/mL HSA, 3 days, presence of 40 mg/mL human serum albumin): 11 nM
- EC50 ([15]; 72 h, 3 days, absence of human serum albumin, read-out: EC50 HCV 1b-lucneo (subgenomic replicon)): 0.6 nM
- EC50 ([15]; Huh-7, read-out: EC50, Huh-7 cells replicating an HCV-1b subgenomic replicon): 0.6 nM
- EC50 ([15]; read-out: EC50 in HCV-1b and HCV-1a replicons): 0.62 to 3.6 nM
- CC50 [16]: > 50000 nM
- CC50 [17]: > 50000 nM
